PubChem BioAssay (NCI)
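A five-concentration, 48-hour dose response in 96-well plates underlies each endpoint, interpolated linearly between surrounding concentrations. Definition used: TGI = concentration required for complete inhibition of growth.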

Experiments:
Assay in all cases: growth of human tumour cells (NCI), 48 h
M19-MEL melanoma = system: M19-MEL melanoma
OVCAR-3 ovarian = system: OVCAR-3 ovarian
DLD-1 colon = system: DLD-1 colon
HCT-116 colon = system: HCT-116 colon
UACC-257 melanoma = system: UACC-257 melanoma
TK-10 renal = system: TK-10 renal
SNB-75 CNS = system: SNB-75 CNS
HT29 colon = system: HT29 colon
SK-MEL-28 melanoma = system: SK-MEL-28 melanoma
A498 renal = system: A498 renal
MALME-3M melanoma = system: MALME-3M melanoma
OVCAR-5 ovarian = system: OVCAR-5 ovarian
K-562 leukemia = system: K-562 leukemia
KM20L2 colon = system: KM20L2 colon
EKVX NSCLC = system: EKVX NSCLC
SNB-19 CNS = system: SNB-19 CNS
SK-OV-3 ovarian = system: SK-OV-3 ovarian
RXF 393 renal = system: RXF 393 renal
SR leukemia = system: SR leukemia
U251 CNS = system: U251 CNS
XF 498 CNS = system: XF 498 CNS
NCI-H460 lung = system: NCI-H460 lung
MOLT-4 leukemia = system: MOLT-4 leukemia
HCC-2998 colon = system: HCC-2998 colon
LXFL 529 NSCLC = system: LXFL 529 NSCLC
NCI-H23 lung = system: NCI-H23 lung
M14 melanoma = system: M14 melanoma
HL-60(TB) leukemia = system: HL-60(TB) leukemia
UACC-62 melanoma = system: UACC-62 melanoma
OVCAR-4 ovarian = system: OVCAR-4 ovarian
SNB-78 CNS = system: SNB-78 CNS
CCRF-CEM leukemia = system: CCRF-CEM leukemia
KM12 colon = system: KM12 colon
NCI-H522 lung = system: NCI-H522 lung
LOX IMVI melanoma = system: LOX IMVI melanoma
SN12C renal = system: SN12C renal
SF-268 CNS = system: SF-268 CNS
HOP-62 NSCLC = system: HOP-62 NSCLC
ACHN renal = system: ACHN renal
SK-MEL-2 melanoma = system: SK-MEL-2 melanoma
SF-539 CNS = system: SF-539 CNS
UO-31 renal = system: UO-31 renal
786-0 renal = system: 786-0 renal
CAKI-1 renal = system: CAKI-1 renal
RPMI-8226 leukemia = system: RPMI-8226 leukemia
NCI-H226 lung = system: NCI-H226 lung
COLO 205 colon = system: COLO 205 colon
SF-295 CNS = system: SF-295 CNS
SW-620 colon = system: SW-620 colon
A549 NSCLC = system: A549 NSCLC
OVCAR-8 ovarian = system: OVCAR-8 ovarian
HOP-92 NSCLC = system: HOP-92 NSCLC
IGROV1 ovarian = system: IGROV1 ovarian
DMS 273 small cell lung = system: DMS 273 small cell lung
SK-MEL-5 melanoma = system: SK-MEL-5 melanoma
DMS 114 small cell lung = system: DMS 114 small cell lung
HCT-15 colon = system: HCT-15 colon

O=S(O)CCCCCSSSCCCCCS(=O)O
TGI (M19-MEL melanoma): > 100 µM
TGI (OVCAR-3 ovarian): 78.9 µM
TGI (DLD-1 colon): > 100 µM
TGI (HCT-116 colon): 68.1 µM
TGI (UACC-257 melanoma): > 100 µM
TGI (TK-10 renal): 93.8 µM
TGI (SNB-75 CNS): 94.8 µM
TGI (HT29 colon): > 100 µM
TGI (SK-MEL-28 melanoma): > 100 µM
TGI (A498 renal): > 100 µM
TGI (MALME-3M melanoma): 94 µM
TGI (OVCAR-5 ovarian): > 100 µM
TGI (K-562 leukemia): > 100 µM
TGI (KM20L2 colon): > 100 µM
TGI (EKVX NSCLC): > 100 µM
TGI (SNB-19 CNS): > 100 µM
TGI (SK-OV-3 ovarian): > 100 µM
TGI (RXF 393 renal): 41.8 µM
TGI (SR leukemia): 30.3 µM
TGI (U251 CNS): > 100 µM
TGI (XF 498 CNS): 36.3 µM
TGI (NCI-H460 lung): > 100 µM
TGI (MOLT-4 leukemia): 60.8 µM
TGI (HCC-2998 colon): > 100 µM
TGI (LXFL 529 NSCLC): 27.9 µM
TGI (NCI-H23 lung): > 100 µM
TGI (M14 melanoma): > 100 µM
TGI (HL-60(TB) leukemia): 65 µM
TGI (UACC-62 melanoma): 55.3 µM
TGI (OVCAR-4 ovarian): > 100 µM
TGI (SNB-78 CNS): > 100 µM
TGI (CCRF-CEM leukemia): 37.7 µM
TGI (KM12 colon): > 100 µM
TGI (NCI-H522 lung): 85.1 µM
TGI (LOX IMVI melanoma): 62.4 µM
TGI (SN12C renal): > 100 µM
TGI (SF-268 CNS): > 100 µM
TGI (HOP-62 NSCLC): > 100 µM
TGI (ACHN renal): > 100 µM
TGI (SK-MEL-2 melanoma): 67.8 µM
TGI (SF-539 CNS): > 100 µM
TGI (UO-31 renal): > 100 µM

O=C1OCCC1(Cc1ccc(Cl)cc1)Cc1ccc(Cl)cc1
TGI (M19-MEL melanoma): > 100 µM
TGI (OVCAR-3 ovarian): > 100 µM
TGI (DLD-1 colon): > 100 µM
TGI (HCT-116 colon): > 100 µM
TGI (UACC-257 melanoma): > 100 µM
TGI (TK-10 renal): > 100 µM
TGI (SNB-75 CNS): 56.5 µM
TGI (HT29 colon): > 100 µM
TGI (SK-MEL-28 melanoma): > 100 µM
TGI (A498 renal): > 100 µM
TGI (786-0 renal): > 100 µM
TGI (MALME-3M melanoma): > 100 µM
TGI (OVCAR-5 ovarian): > 100 µM
TGI (K-562 leukemia): > 100 µM
TGI (EKVX NSCLC): > 100 µM
TGI (SNB-19 CNS): > 100 µM
TGI (SK-OV-3 ovarian): > 100 µM
TGI (SR leukemia): > 100 µM
TGI (U251 CNS): > 100 µM
TGI (XF 498 CNS): 43.3 µM
TGI (NCI-H460 lung): > 100 µM
TGI (MOLT-4 leukemia): > 100 µM
TGI (CAKI-1 renal): > 100 µM
TGI (LXFL 529 NSCLC): > 100 µM
TGI (NCI-H23 lung): > 100 µM
TGI (M14 melanoma): > 100 µM
TGI (HL-60(TB) leukemia): > 100 µM
TGI (UACC-62 melanoma): > 100 µM
TGI (RPMI-8226 leukemia): > 100 µM
TGI (NCI-H226 lung): > 100 µM
TGI (COLO 205 colon): > 100 µM
TGI (OVCAR-4 ovarian): > 100 µM
TGI (SNB-78 CNS): > 100 µM
TGI (CCRF-CEM leukemia): > 100 µM
TGI (SF-295 CNS): > 100 µM
TGI (KM12 colon): > 100 µM
TGI (NCI-H522 lung): > 100 µM
TGI (SN12C renal): > 100 µM
TGI (SW-620 colon): > 100 µM
TGI (SF-268 CNS): > 100 µM
TGI (HOP-62 NSCLC): 89.2 µM
TGI (A549 NSCLC): > 100 µM
TGI (OVCAR-8 ovarian): > 100 µM
TGI (ACHN renal): > 100 µM
TGI (SK-MEL-2 melanoma): > 100 µM
TGI (HOP-92 NSCLC): 96.3 µM
TGI (IGROV1 ovarian): > 100 µM
TGI (UO-31 renal): > 100 µM

CC(=O)OCC(OC(C)=O)C(OC(C)=O)C(OC(C)=O)C(=O)CNn1c(-c2ccc(C)cc2)nc2ccccc2c1=O (stereo unspecified)
TGI (M19-MEL melanoma): > 100 µM
TGI (OVCAR-3 ovarian): > 100 µM
TGI (HCT-116 colon): > 100 µM
TGI (DMS 273 small cell lung): > 100 µM
TGI (UACC-257 melanoma): > 100 µM
TGI (SK-MEL-5 melanoma): > 100 µM
TGI (SNB-75 CNS): > 100 µM
TGI (HT29 colon): > 100 µM
TGI (SK-MEL-28 melanoma): > 100 µM
TGI (A498 renal): > 100 µM
TGI (786-0 renal): > 100 µM
TGI (MALME-3M melanoma): > 100 µM
TGI (OVCAR-5 ovarian): > 100 µM
TGI (K-562 leukemia): > 100 µM
TGI (KM20L2 colon): > 100 µM
TGI (EKVX NSCLC): > 100 µM
TGI (SNB-19 CNS): > 100 µM
TGI (SK-OV-3 ovarian): > 100 µM
TGI (RXF 393 renal): > 100 µM
TGI (SR leukemia): > 100 µM
TGI (U251 CNS): > 100 µM
TGI (XF 498 CNS): > 100 µM
TGI (NCI-H460 lung): > 100 µM
TGI (MOLT-4 leukemia): > 100 µM
TGI (CAKI-1 renal): > 100 µM
TGI (LXFL 529 NSCLC): > 100 µM
TGI (NCI-H23 lung): > 100 µM
TGI (M14 melanoma): > 100 µM
TGI (HL-60(TB) leukemia): > 100 µM
TGI (UACC-62 melanoma): > 100 µM
TGI (DMS 114 small cell lung): > 100 µM
TGI (RPMI-8226 leukemia): > 100 µM
TGI (COLO 205 colon): > 100 µM
TGI (OVCAR-4 ovarian): > 100 µM
TGI (SNB-78 CNS): > 100 µM
TGI (CCRF-CEM leukemia): > 100 µM
TGI (SF-295 CNS): > 100 µM
TGI (KM12 colon): > 100 µM
TGI (NCI-H522 lung): > 100 µM
TGI (LOX IMVI melanoma): > 100 µM
TGI (SN12C renal): > 100 µM
TGI (SW-620 colon): > 100 µM
TGI (SF-268 CNS): > 100 µM
TGI (HOP-62 NSCLC): > 100 µM
TGI (A549 NSCLC): > 100 µM
TGI (OVCAR-8 ovarian): > 100 µM
TGI (ACHN renal): > 100 µM
TGI (SK-MEL-2 melanoma): > 100 µM
TGI (HCT-15 colon): > 100 µM
TGI (SF-539 CNS): > 100 µM
TGI (UO-31 renal): > 100 µM
